Data: patent publication EP2371816A1, “Aminocyclohexenone, their preparation and use as medicament against oxidative stress” (ABIOGEN PHARMA S.p.A., priority 2010, dated 2011)

What was measured:
C6 cells (rat glioma) = assay: In vitro inhibition of CHP-induced oxidative stress (DCF fluorescence) in C6 cells; type: cell-based; settings: 500 µM CHP, compound 4, 20, 100 and 500 µM, 30 minutes at 37 °C, range given for both cell lines together
Method: (§1) The method used was essentially the one reported by Rüweler M. et al. ("Inhibition of peroxide-induced radical generation by plant polyphenols in C6 astroglioma cells" (2008) Toxicol in vitro 22, 1377-81), with a few minor modifications.
(§2) The cells were seeded in phenol-red free DMEM (Sigma Aldrich) into 96-well plates with 5% FBS and 20 mM HEPES at a density of 40,000 cells/well. After 48 hours, the medium was substituted by HBSS (Hanks' Balanced Salt Solution, Sigma) containing 10 µM of dihydro-2',7'-dichlorofluorescein diacetate (H2DCF-DA, Sigma Aldrich) and incubated in darkness for 30 minutes at 37 °C, in order to load the cells with fluorescent dye. H2DCF-DA was hydrolyzed enzymatically by the intracellular esterases to form non-fluorescent H2DCF, which was then rapidly oxidized to form 2',7'-dichlorofluorescein (DCF) being highly fluorescent in the presence of reactive species (RS). The intensity of DCF fluorescence is directly proportional to the amount of RS formed.
(§3) After carrying out two washes, the cells were exposed to 500 µM of CHP and various concentrations (4, 20, 100 and 500 µM) of the compounds of the invention for 30 minutes at 37 °C. Fluorescence was then measured, after cell washing, by a microplate reader at an excitation wavelength of 485 nm and an emission wavelength of 535 nm.
(§4) Six wells per plate per concentration of test composition (compound + CHP) and per control (HBSS without CHP) were measured and 12 wells were used as reference for CHP-induced stress. In addition, each 96-well plate contained 6 wells that received the highest concentration of the tested compounds without CHP, to investigate whether the compounds of the invention alone were able to induce cellular radical formation.
(§5) When using this assay, it should be borne in mind that DCF fluorescence is a generalized indicator of oxidative stress rather than of any particular reactive species, i.e. it is not a direct assay for H2O2 or other reactive species (Halliwell B, Whiteman M. (2004) "Measuring reactive species and oxidative damage in vivo and in cell culture: how should you do it and what do the results mean?" Br. J. Pharmacol. 142 231-255). Therefore, when an increase in DCF fluorescence induced by exposure of cells to CHP was measured, as was undertaken in these assays, it was not possible to deduce which reactive species was responsible. Inhibition of CHP-induced fluorescence was evaluated by means of different concentrations of the compounds of the invention and comparative compounds such as Trolox and edaravone.

[1] = tested on: BAEC cells (bovine aortic endothelial); assay: In vitro inhibition of CHP-induced oxidative stress (DCF fluorescence) in BAEC cells; type: cell-based; settings: 500 µM CHP, compound 4, 20, 100 and 500 µM, 30 minutes at 37 °C, range given for both cell lines together
Method: as §1, §2, §3, §4, §5

[2] = TEAC method (Trolox Equivalent Antioxidant Capacity Assay); settings: ratio of gradient to gradient of reference (trolox); 37 °C, 650 nm, pH 4.5
Source text: This assay is used to measure the total antioxidant activity of pure substances, biological fluids and plant compounds and is based on the reaction of antioxidants with the cation radical ABTS^˙+ (2,2'-azinobis(3-ethylbenzothiazolin-6-sulphonate)). This cation radical is metastable and has to be generated just before the experiment by reacting ABTS with hydrogen peroxide in the presence of HRP.
This radical can be reduced, with consequent loss of absorbance, by an antioxidant whose scavenging capacity can be measured spectrophotometrically at 650 nm. The test is carried out at 37 °C and the results are obtained from a comparison with Trolox (a synthetic antioxidant and hydrophilic analogue of vitamin E).
The ABTS solution S1 was prepared as follows: • 20 mg of ABTS were added to 50 mM of citric acid buffer (40 ml) at pH=4.5 and to the resulting solution there was added an aqueous solution of HRP (4.4 mg, 400 µl) and an aqueous solution of H2O2 (10 µl of a 30% solution diluted with 16.3 ml of water).
For each of the compounds (2), (6) and (7), as synthesized above, there was prepared a 600 µM solution in water, methanol or DMSO according to its solubility, as well as a Trolox solution as reference.
Each solution was diluted to produce 6 solutions each at a concentration between 25 µM and 300 µM. From each of the diluted and divided solutions, there were withdrawn 20 µl to which 200 µl of solution S1 were then added.
The decrease in absorbance of each solution thus obtained was monitored at 650 nm until a stable value was reached (about 90 minutes).
For each set of 6 solutions and for the reference trolox solution, the absorption was given in graph form as a function of the amount of compound (nmol) in the solution. The gradient of the straight line obtained by linear interpolation was determined according to the least squares method. The TEAC value of each compound of the invention is given in the table below and is expressed as the ratio between the gradient of the resulting straight line and the gradient of the reference (trolox) straight line.

Row | SMILES | Inhibition of CHP-induced fluorescence (C6 cells (rat glioma)) | Inhibition of CHP-induced fluorescence [1] | TEAC [2]
1 | O=C1C=C(NCCN2CCCCC2)CC(c2ccccc2)C1 (centres unmarked) [(3), 5-phenyl-3-(2-(piperidin-1-yl)ethylamino)cyclohex-2-enone] | effective | effective | –
2 | CC1(C)CC(=O)C=C(NN2CCCCC2)C1 [(6), 5,5-dimethyl-3-(piperidin-1-ylamino)cyclohex-2-enone] | – | – | 1.2
3 | CC1(C)CC(=O)C=C(NCCN2CCCCC2)C1 [(1), 5,5-dimethyl-3-(2-(piperidin-1-yl)ethylamino)cyclohex-2-enone] | effective | effective | –
